Data set [1] in a line: Color drift of paint dosed with copper-containing material and copper-coordinating additive (CIE a* before/after peroxide). The format is physicochemical. The settings on record: for a* drift (total drift in color, gap between paint color before and after peroxide testing) / a* endpoint: FIG. 1, Control B paint, Cu:phosphate dibasic 1:0.3 and 1:0.6, other additives 1:0.5 and 1:1; for a* endpoint: after peroxide; for color shift to endpoint / color drift: FIG. 10; for color shift to endpoint / color drift / color drift: additive neutralized to pH 7; for drift in color: FIG. 3, additive neutralized to pH 7 before copper-containing material, 1:1.5 and 1:3 molar ratios; for color drift: 1:1 and 1:3 molar ratios.

For the next data set, the system named is bacteria. Description: Antimicrobial efficacy (logarithmic reduction) of paint samples with copper-containing material and copper-coordinating additive. Type of data set: cell-based. The settings on record: FIG. 12; 50 g of 1:3 molar ratio mixture per gallon of control paint. The text has this: As used herein, the term “logarithmic reduction” means the negative value of log (Ca/C0), where Ca refers to the colony form unit (“CFU”) number of the antimicrobial surface and C0 refers to the CFU of the control surface that is not an antimicrobial surface. As an example, a 3 logarithmic reduction equals about 99.9% of the microbes killed and a logarithmic reduction of 5 equals about 99.999% of microbes killed. The logarithmic reduction value may be measured according to the ASTM D2574-16 (2016) “Standard Test Method for Resistance of Emulsion Paints in the Container to Attack by Microorganisms.”
The effectiveness of a composition of the present disclosure as a biocidal composition may be measured as a function of the composition's logarithmic reduction. The composition's logarithmic reduction value may be relevant to its ability to kill a wide variety of biological organisms to which the composition is exposed, but may also allow the copper-containing material to act as a preservative for the composition during storage (e.g., in a container such as, but not limited to a tank, a can, a bucket, a drum, a bottle, or a tube). […]

The mark [2] stands for this setting: FIG. 5, Control N paint, 50 g/gallon.

Results on 8 molecules are retold here after patent US20260114452A1, “ADDITIVES FOR COLOR DRIFT REDUCTION IN COPPER-BASED ANTIMICROBIAL POLYMERIC FORMULATIONS” (CORNING INCORPORATED, priority 2021, published 2026).

Structures can show the parent of a compound that is named as a salt.

Take phosphate dibasic: in data set [1] (50 g/gallon), the “a* drift (total drift in color, gap between paint color before and after peroxide testing)” value (from here on “a* drift”) is −1.75; the “a* endpoint” value is reported as approximately −1.5.
Take `O=P(O)(O)Oc1ccccc1` [phenyl phosphate]: in data set [1] (FIG. 13, 1:3 molar ratio, 50 g/gallon), the “color shift to endpoint” value is reported as “all copper-coordinating additives except for phenyl phosphate accelerated color shift to endpoint”.
In the case of `COP(=O)(O)O` [methyl phosphate], the “color shift to endpoint / color drift” value in data set [1] (1:3 molar ratio, 50 g/gallon) was “accelerated color shift to endpoint, minimizing color drift”. Moreover, the “impact on antimicrobial efficacy” value in the data set on bacteria was “minimal impact on antimicrobial efficacy”.
Turning to `Cl.NO` [hydroxylamine hydrochloride], in data set [1] (50 g/gallon), the “a* drift” value is approximately 0; the “a* endpoint” value was “did not change the endpoint a*”; the drift in color entry is recorded as “reduced significantly”. Besides, in data set [1] (setting [2]), the color drift entry was “minimized color drift by accelerating to endpoint quickly”. In addition, the “effect on a* / color endpoint (summary of data)” value in data set [1] (control paint samples, summary) was “accelerated color endpoints and reduced color shifts by starting with more negative a* values”.
For `COP(=O)(OC)OC` [trimethyl phosphate], in data set [1] (1:3 molar ratio, 50 g/gallon), the “color shift to endpoint / color drift” value is recorded as “accelerated color shift to endpoint, minimizing color drift”.
With `NC(N)=O` [urea], in data set [1] (50 g/gallon), the “a* drift” value is approximately −1; the “a* endpoint” value is listed as “did not change the endpoint a*”.
As for `CCON` [ethoxyamine hydrochloride], the “color shift to endpoint / color drift” value in data set [1] (1:3 molar ratio, 50 g/gallon) was “accelerated color shift to endpoint, minimizing color drift”. Further, the “impact on antimicrobial efficacy” value with bacteria is given as “minimal impact on antimicrobial efficacy”.
In the case of `CCCCC(CC)COP(=O)(O)O` (centres unmarked) [2EHP, 2-ethylhexylphosphate], in data set [1] (50 g/gallon), the “a* drift” value is listed as −0.25 to −1; the “a* endpoint” value is −0.5 to −1; the drift in color entry is recorded as “reduced significantly”. Further, in data set [1] (setting [2]), the color drift entry is given as “did not minimize drift” and the “color drift, 1:3 molar ratio relative to 1:1 molar ratio” value is “some reduction in drift”.
